What was measured:
Test in all cases: cells
BE-13 = format: functional, cell-based; conditions: Homo sapiens;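 also: growth inhibition of human BE-13 cells, measured with a cell viability assay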
Description: SANGER: Inhibition of human BE-13 cell growth in a cell viability assay.

PANC-08-13 = format: functional, cell-based, Homo sapiens; conditions: Homo sapiens, PANC-08-13;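 also: cell growth inhibition, measured with a cell viability assay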
Description: SANGER: Inhibition of human PANC-08-13 cell growth in a cell viability assay.

RCC10RGB = format: functional, cell-based, Homo sapiens; conditions: Homo sapiens, RCC10RGB;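 also: growth inhibition of human RCC10RGB cells, read out by a cell viability assay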
Description: SANGER: Inhibition of human RCC10RGB cell growth in a cell viability assay.

EW-18 = format: functional, cell-based; conditions: Homo sapiens;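 also: growth inhibition of EW-18 cells, read out by a cell viability assay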
Description: SANGER: Inhibition of human EW-18 cell growth in a cell viability assay.

LU-134-A = format: functional, cell-based; conditions: Homo sapiens
Description: SANGER: Inhibition of human LU-134-A cell growth in a cell viability assay.

UACC-62 = format: functional, cell-based, Homo sapiens; conditions: Homo sapiens, UACC-62;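 also: growth inhibition of human UACC-62 cells, read out by a cell viability assay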
Description: SANGER: Inhibition of human UACC-62 cell growth in a cell viability assay.

SK-PN-DW = format: functional, cell-based; conditions: Homo sapiens;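 also: growth inhibition measured with a viability assay on these cells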
Description: SANGER: Inhibition of human SK-PN-DW cell growth in a cell viability assay.

A-427 = format: functional, cell-based, Homo sapiens; conditions: Homo sapiens, A-427;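 also: growth inhibition of human A-427 cells, read out by a cell viability assay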
Description: SANGER: Inhibition of human A427 cell growth in a cell viability assay.

SW 954 = format: functional, cell-based, Homo sapiens; conditions: Homo sapiens, SW 954;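 also: growth inhibition of SW954 human cancer cells, read out as cell viability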
Description: SANGER: Inhibition of human SW954 cell growth in a cell viability assay.

NCI-H1437 = format: functional, cell-based, Homo sapiens; conditions: Homo sapiens, NCI-H1437;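 also: growth inhibition of human NCI-H1437 cells, read out by a cell viability assay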
Description: SANGER: Inhibition of human NCI-H1437 cell growth in a cell viability assay.

NB5 = format: functional, cell-based, Homo sapiens; conditions: Homo sapiens, NB5;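 also: growth inhibition of NB5 cells, read out as cell viability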
Description: SANGER: Inhibition of human NB5 cell growth in a cell viability assay.

U-266 = format: functional, cell-based; conditions: Homo sapiens
Description: SANGER: Inhibition of human U-266 cell growth in a cell viability assay.

HCC1954 = format: functional, cell-based, Homo sapiens; conditions: Homo sapiens, HCC1954;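 also: growth inhibition of human HCC1954 cells, read out with a cell viability assay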
Description: SANGER: Inhibition of human HCC1954 cell growth in a cell viability assay.

DMS-114 = format: functional, cell-based, Homo sapiens; conditions: Homo sapiens, DMS-114
NCI-H661 = format: functional, cell-based, Homo sapiens; conditions: Homo sapiens, NCI-H661;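 also: cell viability assay read-out, IC50 being the concentration that inhibits growth of the cells by half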
Description: SANGER: Inhibition of human NCI-H661 cell growth in a cell viability assay.

UO-31 = format: functional, cell-based; conditions: Homo sapiens;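 also: cell viability assay measuring inhibition of cell growth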
Description: SANGER: Inhibition of human U031 cell growth in a cell viability assay.

no-11 = format: functional, cell-based, Homo sapiens; conditions: Homo sapiens;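 also: growth inhibition of human NO-11 cells, read out with a cell viability assay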
Description: SANGER: Inhibition of human no-11 cell growth in a cell viability assay.

CCRF-CEM = format: functional, cell-based; conditions: Homo sapiens;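 also: inhibition of CCRF-CEM cell growth, measured by a cell viability assay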
Description: SANGER: Inhibition of human CCRF-CEM cell growth in a cell viability assay.

M14 = format: functional, cell-based, Homo sapiens; conditions: Homo sapiens, M14;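 also: growth inhibition of M14 cells, read out with a cell viability assay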
Description: SANGER: Inhibition of human M14 cell growth in a cell viability assay.

U-251 = format: functional, cell-based, Homo sapiens; conditions: Homo sapiens, U-251;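 also: growth inhibition of human U-251 cells, read out through a cell viability assay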
Description: SANGER: Inhibition of human U251 cell growth in a cell viability assay.

COR-L105 = format: functional, cell-based, Homo sapiens; conditions: Homo sapiens, COR-L105;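 also: cell growth inhibition determined with a viability assay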
Description: SANGER: Inhibition of human COR-L105 cell growth in a cell viability assay.

NCI-H727 = format: functional, cell-based, Homo sapiens; conditions: Homo sapiens, NCI-H727;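 also: growth inhibition of human NCI-H727 cells, read out with a cell viability assay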
Description: SANGER: Inhibition of human NCI-H727 cell growth in a cell viability assay.

HCC1419 = format: functional, cell-based, Homo sapiens; conditions: Homo sapiens, HCC1419;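 also: growth inhibition of human HCC1419 cells, read out as cell viability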
Description: SANGER: Inhibition of human HCC1419 cell growth in a cell viability assay.

NB6 = format: functional, cell-based, Homo sapiens; conditions: Homo sapiens, NB6;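 also: growth inhibition of NB6 cells, read out by a cell viability assay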
Description: SANGER: Inhibition of human NB6 cell growth in a cell viability assay.

NCI-H1581 = format: functional, cell-based, Homo sapiens; conditions: Homo sapiens, NCI-H1581;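 also: cell growth inhibition read out by a viability assay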
Description: SANGER: Inhibition of human NCI-H1581 cell growth in a cell viability assay.

PC-3 = format: functional, cell-based, Homo sapiens; conditions: Homo sapiens, PC-3;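 also: cell viability assay measuring growth inhibition of PC-3 cells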
Description: SANGER: Inhibition of human PC-3 cell growth in a cell viability assay.

NOS-1 = format: functional, cell-based, Homo sapiens; conditions: Homo sapiens, NOS-1;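 also: growth inhibition of the human NOS-1 cell line, read out with a cell viability assay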
Description: SANGER: Inhibition of human NOS-1 cell growth in a cell viability assay.

NUGC-3 = format: functional, cell-based, Homo sapiens; conditions: Homo sapiens, NUGC-3;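 also: growth inhibition of human NUGC-3 cells, read out with a cell viability assay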
Description: SANGER: Inhibition of human NUGC-3 cell growth in a cell viability assay.

NB10 = format: functional, cell-based, Homo sapiens; conditions: Homo sapiens, NB10;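 also: growth inhibition of NB10 cells, read out by a cell viability assay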
Description: SANGER: Inhibition of human NB10 cell growth in a cell viability assay.

CAL-72 = format: functional, cell-based, Homo sapiens; conditions: Homo sapiens, CAL-72;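 also: cell viability assay measuring inhibition of proliferation in the CAL-72 cell line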
Description: SANGER: Inhibition of human CAL-72 cell growth in a cell viability assay.

FaDu = format: functional, cell-based, Homo sapiens; conditions: Homo sapiens, FaDu;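 also: cell viability readout of growth inhibition in FaDu cells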
Description: SANGER: Inhibition of human FADU cell growth in a cell viability assay.

HuP-T4 = format: functional, cell-based, Homo sapiens; conditions: Homo sapiens, HuP-T4;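 also: cell viability assay measuring how much HuP-T4 cell growth is inhibited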
Description: SANGER: Inhibition of human HuP-T4 cell growth in a cell viability assay.

ALL-PO = format: functional, cell-based; conditions: Homo sapiens;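 also: growth inhibition of ALL-PO cells, read out by a cell viability assay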
Description: SANGER: Inhibition of human ALL-PO cell growth in a cell viability assay.

NB13 = format: functional, cell-based, Homo sapiens; conditions: Homo sapiens, NB13;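 also: cell viability readout measuring growth inhibition of human NB13 cells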
Description: SANGER: Inhibition of human NB13 cell growth in a cell viability assay.

CW-2 = format: functional, cell-based, Homo sapiens; conditions: Homo sapiens, CW-2;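 also: growth inhibition of CW-2 cells, read out by a cell viability assay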
Description: SANGER: Inhibition of human CW-2 cell growth in a cell viability assay.

SK-MEL-28 = format: functional, cell-based; conditions: Homo sapiens;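 also: growth inhibition of human SK-MEL-28 cells, read out with a cell viability assay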
Description: SANGER: Inhibition of human SK-MEL-28 cell growth in a cell viability assay.

CGTH-W-1 = format: functional, cell-based, Homo sapiens; conditions: Homo sapiens, CGTH-W-1;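 also: growth inhibition of human CGTH-W-1 cells measured by cell viability assay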
Description: SANGER: Inhibition of human CGTH-W-1 cell growth in a cell viability assay.

NCI-H2347 = format: functional, cell-based, Homo sapiens; conditions: Homo sapiens, NCI-H2347;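 also: growth inhibition of the cell line, read out with a cell viability assay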
Description: SANGER: Inhibition of human NCI-H2347 cell growth in a cell viability assay.

CTB-1 = format: functional, cell-based; conditions: Homo sapiens
Description: SANGER: Inhibition of human CTB-1 cell growth in a cell viability assay.

TE-9 = format: functional, cell-based, Homo sapiens; conditions: Homo sapiens, TE-9;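 also: cell growth inhibition, measured with a cell viability readout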
Description: SANGER: Inhibition of human TE-9 cell growth in a cell viability assay.

RS4-11 = format: functional, cell-based; conditions: Homo sapiens;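 also: growth inhibition of RS4-11 cells, read out by a cell viability assay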
Description: SANGER: Inhibition of human RS4-11 cell growth in a cell viability assay.

A204 = format: functional, cell-based, Homo sapiens; conditions: Homo sapiens, A204;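 also: growth inhibition of human A204 cells, read out with a cell viability assay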
Description: SANGER: Inhibition of human A204 cell growth in a cell viability assay.

MCF7 = format: functional, cell-based, Homo sapiens; conditions: Homo sapiens, MCF7;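 also: growth inhibition of human MCF7 cells, read out with a cell viability assay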
Description: SANGER: Inhibition of human MCF7 cell growth in a cell viability assay.

ETK-1 = format: functional, cell-based, Homo sapiens; conditions: Homo sapiens, ETK-1;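 also: growth inhibition of human ETK-1 cells, read out with a cell viability assay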
Description: SANGER: Inhibition of human ETK-1 cell growth in a cell viability assay.

MS-1 = format: functional, cell-based; conditions: Homo sapiens
Description: SANGER: Inhibition of human MS-1 cell growth in a cell viability assay.

SW1710 = format: functional, cell-based, Homo sapiens; conditions: Homo sapiens, SW1710;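 also: growth inhibition of SW1710 cells, determined with a cell viability assay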
Description: SANGER: Inhibition of human SW1710 cell growth in a cell viability assay.

HCC38 = format: functional, cell-based, Homo sapiens; conditions: Homo sapiens, HCC38;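 also: cell viability assay on the human HCC38 cell line, with IC50 marking the concentration that inhibits cell growth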
Description: SANGER: Inhibition of human HCC38 cell growth in a cell viability assay.

SBC-5 = format: functional, cell-based, Homo sapiens; conditions: Homo sapiens, SBC-5;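 also: cell viability assay read-out, IC50 is the concentration that inhibits growth of the cells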
Description: SANGER: Inhibition of human SBC-5 cell growth in a cell viability assay.

RD = format: functional, cell-based, Homo sapiens; conditions: Homo sapiens, RD
Description: SANGER: Inhibition of human RD cell growth in a cell viability assay.

CAL-120 = format: functional, cell-based, Homo sapiens; conditions: Homo sapiens, CAL-120;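 also: cell growth inhibition, read out as cell viability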
Description: SANGER: Inhibition of human CAL-120 cell growth in a cell viability assay.

NCI-H1299 = format: functional, cell-based, Homo sapiens; conditions: Homo sapiens, NCI-H1299;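 also: growth inhibition of human NCI-H1299 cells, read out by a cell viability assay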
Description: SANGER: Inhibition of human NCI-H1299 cell growth in a cell viability assay.

Hs-578T = format: functional, cell-based, Homo sapiens; conditions: Homo sapiens, Hs-578T
Description: SANGER: Inhibition of human Hs-578-T cell growth in a cell viability assay.

Q: With `CC(=O)O[C@@H]1[C@@H](OC(C)=O)[C@@H](O)[C@H](Oc2c(-c3ccc(O)cc3)oc3cc(O)cc(O)c3c2=O)O[C@H]1C` as the molecule, how does the IC50 (BE-13) read?
A: > 10 µM

Q: What about the IC50 (PANC-08-13) of the same molecule?
A: > 10 µM

Q: And the IC50 (RCC10RGB)?
A: > 10 µM

Q: And the IC50 (EW-18)?
A: > 10000 nM

Q: And the IC50 (LU-134-A)?
A: > 10 µM

Q: And the IC50 (UACC-62)?
A: > 10 µM

Q: And the IC50 (SK-PN-DW)?
A: > 10 µM

Q: What about the IC50 (A-427) of the same molecule?
A: > 10 µM

Q: And the IC50 (SW 954)?
A: > 10 µM

Q: And the IC50 (NCI-H1437)?
A: > 10000 nM

Q: And the IC50 (NB5)?
A: > 10000 nM

Q: And the IC50 (U-266)?
A: > 10 µM

Q: And the IC50 (HCC1954)?
A: > 10 µM

Q: What about the IC50 (DMS-114) of the same molecule?
A: > 10 µM

Q: And the IC50 (NCI-H661)?
A: > 10 µM

Q: And the IC50 (UO-31)?
A: > 10 µM

Q: And the IC50 (no-11)?
A: > 10 µM

Q: And the IC50 (CCRF-CEM)?
A: > 10 µM

Q: And the IC50 (M14)?
A: > 10000 nM

Q: And the IC50 (U-251)?
A: > 10 µM

Q: And the IC50 (COR-L105)?
A: > 10 µM

Q: What about the IC50 (NCI-H727) of the same molecule?
A: > 10 µM

Q: And the IC50 (HCC1419)?
A: > 10 µM

Q: What about the IC50 (NB6) of the same molecule?
A: > 10 µM

Q: And the IC50 (NCI-H1581)?
A: > 10 µM

Q: What about the IC50 (PC-3) of the same molecule?
A: > 10 µM

Q: What about the IC50 (NOS-1) of the same molecule?
A: > 10 µM

Q: What about the IC50 (NUGC-3) of the same molecule?
A: > 10 µM

Q: What about the IC50 (NB10) of the same molecule?
A: > 10 µM

Q: And the IC50 (CAL-72)?
A: 3.89 µM

Q: What about the IC50 (FaDu) of the same molecule?
A: > 10 µM

Q: And the IC50 (HuP-T4)?
A: > 10000 nM

Q: And the IC50 (ALL-PO)?
A: > 10 µM

Q: And the IC50 (NB13)?
A: > 10 µM

Q: What about the IC50 (CW-2) of the same molecule?
A: > 10 µM

Q: And the IC50 (SK-MEL-28)?
A: > 10000 nM

Q: And the IC50 (CGTH-W-1)?
A: > 10000 nM

Q: What about the IC50 (NCI-H2347) of the same molecule?
A: > 10000 nM

Q: And the IC50 (CTB-1)?
A: 7.32 µM

Q: What about the IC50 (TE-9) of the same molecule?
A: > 10 µM

Q: What about the IC50 (RS4-11) of the same molecule?
A: > 10 µM

Q: What about the IC50 (A204) of the same molecule?
A: > 10 µM

Q: And the IC50 (MCF7)?
A: > 10 µM

Q: What about the IC50 (ETK-1) of the same molecule?
A: > 10 µM

Q: And the IC50 (MS-1)?
A: > 10 µM

Q: And the IC50 (SW1710)?
A: > 10000 nM

Q: And the IC50 (HCC38)?
A: > 10 µM

Q: And the IC50 (SBC-5)?
A: > 10 µM

Q: And the IC50 (RD)?
A: > 10 µM

Q: What about the IC50 (CAL-120) of the same molecule?
A: > 10 µM

Q: What about the IC50 (NCI-H1299) of the same molecule?
A: > 10 µM

Q: What about the IC50 (Hs-578T) of the same molecule?
A: > 10000 nM

Q: Which IC50 (BE-13) does the source give for `COc1cc(F)c(F)c(Nc2ccc(I)cc2F)c1NS(=O)(=O)C1(CC(O)CO)CC1` (centres undefined) here?
A: > 5 µM

Q: What about the IC50 (PANC-08-13) of the same molecule?
A: > 5 µM

Q: What about the IC50 (RCC10RGB) of the same molecule?
A: > 5 µM

Q: What about the IC50 (EW-18) of the same molecule?
A: 2770 nM

Q: What about the IC50 (LU-134-A) of the same molecule?
A: > 5 µM

Q: What about the IC50 (UACC-62) of the same molecule?
A: > 5 µM

Q: What about the IC50 (SK-PN-DW) of the same molecule?
A: > 5 µM

Q: What about the IC50 (A-427) of the same molecule?
A: 4.46 µM

Q: What about the IC50 (SW 954) of the same molecule?
A: > 5 µM

Q: And the IC50 (NCI-H1437)?
A: 702 nM

Q: And the IC50 (NB5)?
A: 978 nM

Q: And the IC50 (U-266)?
A: > 5 µM

Q: And the IC50 (HCC1954)?
A: > 5 µM

Q: And the IC50 (DMS-114)?
A: > 5 µM

Q: And the IC50 (NCI-H661)?
A: > 5 µM

Q: What about the IC50 (UO-31) of the same molecule?
A: > 5 µM

Q: What about the IC50 (no-11) of the same molecule?
A: > 5 µM

Q: What about the IC50 (CCRF-CEM) of the same molecule?
A: > 5 µM

Q: What about the IC50 (M14) of the same molecule?
A: 28.6 nM

Q: What about the IC50 (U-251) of the same molecule?
A: > 5 µM

Q: What about the IC50 (COR-L105) of the same molecule?
A: > 5 µM

Q: And the IC50 (NCI-H727)?
A: > 5 µM

Q: What about the IC50 (HCC1419) of the same molecule?
A: > 5 µM

Q: What about the IC50 (NB6) of the same molecule?
A: > 5 µM

Q: What about the IC50 (NCI-H1581) of the same molecule?
A: > 5 µM

Q: What about the IC50 (PC-3) of the same molecule?
A: > 5 µM

Q: What about the IC50 (NOS-1) of the same molecule?
A: > 5 µM

Q: And the IC50 (NUGC-3)?
A: 4.34 µM

Q: And the IC50 (NB10)?
A: > 5 µM

Q: What about the IC50 (CAL-72) of the same molecule?
A: > 5 µM

Q: And the IC50 (FaDu)?
A: > 5 µM

Q: What about the IC50 (HuP-T4) of the same molecule?
A: 514 nM

Q: What about the IC50 (ALL-PO) of the same molecule?
A: > 5 µM

Q: What about the IC50 (NB13) of the same molecule?
A: > 5 µM

Q: And the IC50 (CW-2)?
A: > 5 µM

Q: And the IC50 (SK-MEL-28)?
A: 115 nM

Q: What about the IC50 (CGTH-W-1) of the same molecule?
A: 2730 nM

Q: And the IC50 (NCI-H2347)?
A: 868 nM

Q: What about the IC50 (CTB-1) of the same molecule?
A: > 5 µM

Q: And the IC50 (TE-9)?
A: > 5 µM

Q: And the IC50 (RS4-11)?
A: > 5 µM

Q: What about the IC50 (A204) of the same molecule?
A: > 5 µM

Q: And the IC50 (MCF7)?
A: > 5 µM

Q: And the IC50 (ETK-1)?
A: 4.24 µM

Q: And the IC50 (MS-1)?
A: > 5 µM

Q: And the IC50 (SW1710)?
A: 2020 nM

Q: And the IC50 (HCC38)?
A: > 5 µM

Q: And the IC50 (SBC-5)?
A: > 5 µM

Q: And the IC50 (RD)?
A: 3.28 µM

Q: And the IC50 (CAL-120)?
A: > 5 µM

Q: And the IC50 (NCI-H1299)?
A: > 5 µM

Q: What about the IC50 (Hs-578T) of the same molecule?
A: 1760 nM

From ChEMBL document CHEMBL1201861, “Genomics of Drug Sensitity in Cancer screening data, Wellcome Trust Sanger Institute”
